Key:
[1] = tested on: H1299 cells; test: MTT assay, viability of H1299 cells; type: cell-based; conditions: Homo sapiens, NCI-H1299, 72 h, three days, read-out: IC50 against the viability
Method: (§1) Cells were seeded into 96-well plates at a density of 1-2 × 10^3 cells/well and incubated for 24 h. Cells were treated with vehicle or various concentrations of test compounds for two (PC9 and PC9/ER cells) or three (other cells) days. Cells were further incubated with MTT solution (final concentration of 500 μg/mL) for 4 h at 37 °C. The formazan products were dissolved in dimethyl sulfoxide (DMSO), and the absorbance was measured at 570 nm. The data are presented as a percentage of the control group.

[2] = tested on: PC9 cells; test: MTT assay, viability of PC9 cells; type: cell-based; conditions: Homo sapiens, PC-9, 48 h, two days, 5% FBS, read-out: IC50 against the viability
Method: as §1

[3] = tested on: NSCLC cells; test: Anchorage-dependent colony formation assay; type: cell-based, human; conditions: subset of NSCLC cells
Method: Cells were seeded into 6-well plates at a density of 300 cells/well and treated with LL6. The drug-containing medium was changed once or twice a week. After incubation for 10-14 days, colonies were fixed with 100% methanol, stained with 0.002% crystal violet solution, and washed with deionized water several times. The colonies were imaged and manually counted.

[4] = tested on: NSCLC cells; test: Anchorage-independent (soft agar) colony formation assay; type: cell-based, human; conditions: subset of NSCLC cells
Method: Cells (2-3 × 10^3 cells/well) were mixed with sterile 1% agar solution (final concentration of 0.4%) and poured onto 1% base agar in 24-well plates. After solidification of the top agar, LL6 was diluted in complete medium and added to the agar. Cells embedded in the top agar were incubated for 10-14 days at 37 °C with 5% CO2. The LL6-containing medium was changed twice a week. After incubation, the colonies were stained with MTT solution, imaged, and counted using ImageJ software (National Institutes of Health, Bethesda, […], USA).

[5] = target: T1, ABL1(E255K)-phosphorylated (Homo sapiens, UniProt P00519, E255K); test: KINOMEscan competition binding assay; conditions: LL6 at 10 μM; read-out: Percent Control
T1 construct: purchased DiscoverX KINOMEscan
Method: (§2) To briefly summarize, Kd was measured by a competition binding assay that quantitatively measures the ability of a compound to compete with an immobilized ligand. […] Dose response curves of 11 points are obtained for Kd values, which are measured in duplicate. See more details in the cited references [39]-[42] and see also at www.discoverx.com.

[6] = target: T2, ABL1(T315I)-phosphorylated (Homo sapiens, UniProt P00519, T315I); test: KINOMEscan competition binding assay; conditions: LL6 at 10 μM; read-out: Percent Control
T2 construct: purchased DiscoverX KINOMEscan
Method: as §2

[7] = target: T3, ABL1-nonphosphorylated (Homo sapiens, UniProt P00519); test: KINOMEscan competition binding assay; conditions: LL6 at 10 μM; read-out: Percent Control
T3 construct: purchased DiscoverX KINOMEscan
Method: as §2

[8] = target: T4, ABL1-phosphorylated (Homo sapiens, UniProt P00519); test: KINOMEscan competition binding assay; conditions: LL6 at 10 μM; read-out: Percent Control
T4 construct: purchased DiscoverX KINOMEscan
Method: as §2

[9] = target: T5, ACVR1B (Homo sapiens, UniProt P36896); test: KINOMEscan competition binding assay; conditions: LL6 at 10 μM; read-out: Percent Control
T5 construct: purchased DiscoverX KINOMEscan
Method: as §2

[10] = target: T6, ADCK3 (Homo sapiens, UniProt Q8NI60); test: KINOMEscan competition binding assay; conditions: LL6 at 10 μM; read-out: Percent Control
T6 construct: purchased DiscoverX KINOMEscan
Method: as §2

[11] = target: T7, AKT1 (Homo sapiens, UniProt P31749); test: KINOMEscan competition binding assay; conditions: LL6 at 10 μM; read-out: Percent Control
T7 construct: purchased DiscoverX KINOMEscan
Method: as §2

[12] = target: T8, AKT2 (Homo sapiens, UniProt P31751); test: KINOMEscan competition binding assay; conditions: LL6 at 10 μM; read-out: Percent Control
T8 construct: purchased DiscoverX KINOMEscan
Method: as §2

[13] = target: T9, AURKB (Homo sapiens, UniProt Q96GD4); test: KINOMEscan competition binding assay; conditions: LL6 at 10 μM; read-out: Percent Control
T9 construct: purchased DiscoverX KINOMEscan
Method: as §2

[14] = target: AXL; test: KINOMEscan competition binding assay; parameters: species or system human
Method: (§3) Kd values were obtained by KINOMEscan from DiscoverX (San Diego, CA, USA). To briefly summarize, Kd was measured by a competition binding assay that quantitatively measures the ability of a compound to compete with an immobilized ligand. […] Dose response curves of 11 points are obtained for Kd values, which are measured in duplicate. See more details in the cited references [39]-[42] and see also at www.discoverx.com.

[15] = target: IGF-1R; test: KINOMEscan competition binding assay; parameters: species or system human
Method: as §3

[16] = tested on: Src; test: KINOMEscan competition binding assay; parameters: species or system human
Method: as §3

[17] = target: T10, BTK (Homo sapiens, UniProt Q06187); test: KINOMEscan competition binding assay; conditions: LL6 at 10 μM; read-out: Percent Control
T10 construct: purchased DiscoverX KINOMEscan
Method: as §3

[18] = target: T11, CDK9 (Homo sapiens, UniProt P50750); test: KINOMEscan competition binding assay; conditions: LL6 at 10 μM; read-out: Percent Control
T11 construct: purchased DiscoverX KINOMEscan
Method: as §3

[19] = target: T12, JNK2 (Homo sapiens, UniProt P45984); test: KINOMEscan competition binding assay; conditions: LL6 at 10 μM; read-out: Percent Control
T12 construct: purchased DiscoverX KINOMEscan
Method: as §3

[20] = target: T13, MAP3K4 (Homo sapiens, UniProt Q9Y6R4); test: KINOMEscan competition binding assay; conditions: LL6 at 10 μM; read-out: Percent Control
T13 construct: purchased DiscoverX KINOMEscan
Method: as §3

[21] = target: T14, MLK1 (Homo sapiens, UniProt P80192); test: KINOMEscan competition binding assay; conditions: LL6 at 10 μM; read-out: Percent Control
T14 construct: purchased DiscoverX KINOMEscan
Method: as §3

[22] = target: T15, PDGFRA (Homo sapiens, UniProt P16234); test: KINOMEscan competition binding assay; conditions: LL6 at 10 μM; read-out: Percent Control
T15 construct: purchased DiscoverX KINOMEscan
Method: as §3

[23] = target: T16, PDPK1 (Homo sapiens, UniProt O15530); test: KINOMEscan competition binding assay; conditions: LL6 at 10 μM; read-out: Percent Control
T16 construct: purchased DiscoverX KINOMEscan
Method: as §3

[24] = target: T17, PIK3C2B (Homo sapiens, UniProt O00750); test: KINOMEscan competition binding assay; conditions: LL6 at 10 μM; read-out: Percent Control
T17 construct: purchased DiscoverX KINOMEscan
Method: as §3

[25] = target: T18, PIM1 (Homo sapiens, UniProt P11309); test: KINOMEscan competition binding assay; conditions: LL6 at 10 μM; read-out: Percent Control
T18 construct: purchased DiscoverX KINOMEscan
Method: as §3

[26] = target: T19, PLK1 (Homo sapiens, UniProt P53350); test: KINOMEscan competition binding assay; conditions: LL6 at 10 μM; read-out: Percent Control
T19 construct: purchased DiscoverX KINOMEscan
Method: as §3

[27] = target: T20, SNARK (Homo sapiens, UniProt Q9H093); test: KINOMEscan competition binding assay; conditions: LL6 at 10 μM; read-out: Percent Control
T20 construct: purchased DiscoverX KINOMEscan
Method: as §3

[28] = target: T21, TSSK1B (Homo sapiens, UniProt Q9BXA7); test: KINOMEscan competition binding assay; conditions: LL6 at 10 μM; read-out: Percent Control
T21 construct: purchased DiscoverX KINOMEscan
Method: as §3

[29] = target: T22, ZAP70 (Homo sapiens, UniProt P43403); test: KINOMEscan competition binding assay; conditions: LL6 at 10 μM; read-out: Percent Control
T22 construct: purchased DiscoverX KINOMEscan
Method: as §3

[30] = target: T23, p38-alpha (Homo sapiens, UniProt Q16539); test: KINOMEscan competition binding assay; conditions: LL6 at 10 μM; read-out: Percent Control
T23 construct: purchased DiscoverX KINOMEscan
Method: as §3

In the case of `Nc1ncnc2c1c(-c1ccc(Cl)cc1)nn2CCn1cc(COc2ccc(Nc3nccc(Nc4cnc5ccccc5c4)n3)cc2)nn1` [LL6], the IC50 [1] is reported as 2930 nM, the IC50 [2] is reported as greater than 10 µM and the “colony formation, anchorage-dependent” value [3] is reported as “significantly suppressed”. For the same molecule, the “colony formation, anchorage-independent” value [4] was “significantly suppressed”, the remaining binding at 10 µM [5] was 92% and the remaining binding at 10 µM [6] was 100%. It also gave a remaining binding at 10 µM [7] of 61%, a remaining binding at 10 µM [8] of 62% and a remaining binding at 10 µM [9] of 50%. For the same molecule, the remaining binding at 10 µM [10] was 67%, the remaining binding at 10 µM [11] was 100% and the remaining binding at 10 µM [12] was 77%. For the same molecule, the remaining binding at 10 µM [13] was 55%, the Kd ([14]; AXL, 11-point dose response, duplicate) was 1600 nM and the inhibition ([14]; AXL, LL6 at 10 µM) was greater than 65%. The “Percent Control” value ([14]; LL6 at 10 μM) was 22%, the Kd ([15]; IGF-1R, 11-point dose response, duplicate) was 5 µM and the inhibition ([15]; IGF-1R, LL6 at 10 µM) was greater than 65%. For the same molecule, the “Percent Control” value ([15]; LL6 at 10 μM) was 16%, the “Percent Control” value ([16]; LL6 at 10 μM) was 26% and the Kd ([16]; Src, 11-point dose response, duplicate) was 3.4 µM. For the same molecule, the inhibition ([16]; Src, LL6 at 10 µM) was greater than 65%, the remaining binding at 10 µM [17] was 100% and the remaining binding at 10 µM [18] was 100%. It also gave a remaining binding at 10 µM [19] of 67%, a remaining binding at 10 µM [20] of 75% and a remaining binding at 10 µM [21] of 75%. It also gave a remaining binding at 10 µM [22] of 64%, a remaining binding at 10 µM [23] of 87% and a remaining binding at 10 µM [24] of 100%. It also gave a remaining binding at 10 µM [25] of 98%, a remaining binding at 10 µM [26] of 100% and a remaining binding at 10 µM [27] of 100%. It also gave a remaining binding at 10 µM [28] of 100%, a remaining binding at 10 µM [29] of 100% and a remaining binding at 10 µM [30] of 100%.

From article PMC7778606, “Development of the phenylpyrazolo[3,4-d]pyrimidine-based, insulin-like growth factor receptor/Src/AXL-targeting small molecule kinase inhibitor” (Theranostics, 2021)
